According to publication PMC6562844, “A Basic Study of Photodynamic Therapy with Glucose-Conjugated Chlorin e6 Using Mammary Carcinoma Xenografts” (Cancers, 2019):

Experiments:
SNP cells [1] = experiment: Kinetics experiment to assess apoptosis (IncuCyte Annexin V live-cell analysis); type: cell-based, canine; conditions: 5 J/cm^2
Experimental: SNP cells were seeded at a density of (1–2) × 10^4 cells/well in 96-well plates and incubated for 24 h. The cells were then incubated with various concentrations of G-Ce6 (0, 0.064, 0.32, 1.6, or 8.0 μg/mL) for 24 h at 37 °C. After washing with fresh media, the cells were irradiated with 650-nm laser light (10 mW/cm^2, 5 J/cm^2) emitted by a semiconductor laser, using an optical fiber with a microlens delivery attachment. The cells were then stained with IncuCyte® Annexin V (Essen BioScience Inc., Ann Arbor, MI, USA) immediately following PDT, and incubated in a 5% CO2 atmosphere at 37 °C for 24 h. Images were automatically captured every 1 h for 24 h in phase-contrast and fluorescence modes using the IncuCyte® S3 system; phase contrast and green-phase images were obtained from the system. The total green object integrated intensity (green calibrated unit (GCU) × μm²/image) in an image was determined by object counting with IncuCyte® S3 Software according to the manufacturer’s protocol. In the present study, object counting is defined as the total sum of the intensity of Annexin V Green fluorescence in the image.

SNP cells [2] = experiment: Analysis of apoptosis (Muse Annexin V and Dead Cell Assay kit); type: cell-based, canine; conditions: 8 μg/mL; 1, 5, or 15 J/cm^2; 4 h after PDT; p < 0.01
Experimental: (§1) SNP cells were seeded at a density of 5 × 10^4 cells/well in 35-mm petri dishes containing 2 mL culture medium. Following 24 h of incubation, the cells were divided into the following groups: control (no treatment); laser (irradiated with a light dose of 15 J/cm^2); G-Ce6 (treated with 8 μg/mL G-Ce6); and PDT (treated with 8 μg/mL G-Ce6, and then irradiated with a light dose of 1, 5, or 15 J/cm^2).
The cells were incubated with 8 μg/mL G-Ce6 for 24 h. After washing with fresh media, the cells were irradiated with 650-nm laser light (10 mW/cm^2; 1, 5, and 15 J/cm^2) emitted by a semiconductor laser, using an optical fiber with a microlens delivery attachment. Apoptosis was assessed 4 h after laser irradiation using the Muse Annexin V and Dead Cell Assay kit (EMD Millipore Co., Billerica, MA, USA), according to the manufacturer’s protocols. Annexin V was used to detect phosphatidylserine on the external membrane of apoptotic cells.
(§2) Single-cell suspensions were then loaded onto the Muse Cell Analyzer (EMD Millipore Co.).

SNP cells [3] = experiment: Reactive oxygen species assay (Muse Oxidative Stress kit); type: cell-based, canine; conditions: 8 μg/mL, 4 h after PDT
Experimental: as §1
Reactive oxygen species (ROS) generation was assessed 4 h after laser irradiation using the Muse Oxidative Stress kit (EMD Millipore Co.), according to the manufacturer’s protocols; this kit determines the percentage of cells that are negative (healthy cells) and positive for ROS (cells containing ROS).
as §2

SNP cells [4] = experiment: Effect of a pan-caspase inhibitor on G-Ce6-PDT-induced cell death; type: cell-based, canine; conditions: 8 μg/mL G-Ce6; 10 μM Z-VAD-FMK; 5 J/cm^2
Experimental: SNP cells were incubated with 8 μg/mL G-Ce6 for 24 h in the presence (10 μM) or absence of Z-VAD-FMK (Medical & Biological Laboratories Co. Ltd., Aichi, Japan), which is a pan-caspase inhibitor. After washing with fresh media, the cells were irradiated with 650-nm laser light (10 mW/cm^2, 5 J/cm^2) emitted by a semiconductor laser, using an optical fiber with a microlens delivery attachment. Apoptosis was assessed at 4 h after laser irradiation using the Muse Annexin V and Dead Cell Assay kit.

SNP tumors = experiment: Histological examination of SNP tumors after PDT (H&E); type: in vivo, NOD/ShiJic-scidJcl mice
Experimental: To examine PDT-induced histological changes in the tumor tissue and surrounding normal tissue, animals were sacrificed via cervical dislocation, and the tumors were harvested at 24 h after PDT. The tumor tissues were fixed in 10% buffered formalin and embedded in paraffin. Tumor sections were cut at a thickness of 4 μm, stained with hematoxylin & eosin (H&E), and examined under a light microscope (Olympus BX51).

[5] = General physical examination and blood analysis in dogs; type: in vivo, healthy beagle dogs; conditions: for ALP / ALT / AST / BUN / Cre / GGT / Glu: Post (1 day after administration)
Experimental: The animal protocol using healthy beagle dogs was approved by the Animal Research Committee of the Tottori University (project number: 17-T-3). For the pharmacokinetic crossover study, 6, 3, and 1 healthy beagle dogs were intravenously administered G-Ce6 at a dose of 2, 5, and 20 mg/kg, respectively. The ages of the healthy dogs (3 males and 3 females) ranged from 6–12 years old (mean and median, 8.6 and 7.5 years, respectively); the dogs weighed 8.7–11.2 kg (mean and median, 10.2 and 10.5 kg, respectively).
A general physical examination was performed on all dogs before and after PDT. Serum biochemistry analysis of glucose (Glu), AST, ALT, alkaline phosphatase (ALP), γ-glutamyltranspeptidase (GGT), blood urea nitrogen, and creatinine (Cre) was also performed for all dogs immediately before and 1 day after G-Ce6 administration.

SNP cells [6] = experiment: Photodynamic cytotoxicity in SNP cells (Cell Counting Kit-8); type: cell-based, canine; conditions: 650-nm laser, 1 J/cm^2, data not shown
[7] = system: murine colon cancer cells; set-up: method as in PMID 29408755; conditions: light dose of 16 J/cm^2; read-out: IC50 against murine colon cancer cells; cited from earlier work

**Q.** Which “Time after PDT at which GCU began to increase” value (SNP cells [1]; 0.32 μg/mL) does the source give for CCC1=C(C)c2cc3[nH]c(cc4nc(c(CC(=O)OC)c5[nH]c(cc1n2)c(C)c5C(=O)OC)[C@@H](CCC(=O)OC)[C@@H]4C)c(C)c3C(C)OCCCS[C@@H]1O[C@H](CO)[C@@H](O)[C@H](O)[C@H]1O (stereo partly drawn) [G-Ce6, Methyl (7S,8S)-18-ethyl-5-(2-methoxy-2-oxoethyl)-7-(3-methoxy-3-oxopropyl)-2,8,12,17-tetramethyl-13-(1-(3-(((2S,3R,4S,5S,6R)-3,4,5-trihydroxy-6-(hydroxymethyl)tetrahydro-2H-pyran-2-yl)thio)propoxy)ethyl)-7H,8H-porphyrin-3-carboxylate] here?
**A.** Its value is 1 to 3 h.

**Q.** What about the “Time after PDT at which GCU reached a maximum” value (SNP cells [1]; 0.32 μg/mL) of the same compound?
**A.** Its value is 10 h.

**Q.** And the “Time after PDT at which apoptosis (GCU) reached a plateau” value (SNP cells [1]; 8 μg/mL)?
**A.** Its value is “approximately 4 h”.

**Q.** And the “Total green object integrated intensity (GCU × μm²/image) after PDT” value (SNP cells [1]; <0.064 μg/mL)?
**A.** Its value is “did not increase”.

**Q.** What about the “Apoptotic rates compared with control group” value (SNP cells [2]) of the same compound?
**A.** Its value is “significantly higher”.

**Q.** And the “Percentage of ROS (+) cells compared with control group” value (SNP cells [3]; 5 J/cm^2, p < 0.01)?
**A.** Its value is “significantly higher”.

**Q.** And the “Percentage of ROS (+) cells” value (SNP cells [3]; 15 J/cm^2)?
**A.** Its value is “remarkably decreased”.

**Q.** And the “G-Ce6-PDT-induced apoptosis and cell death in the presence of Z-VAD-FMK” value (SNP cells [4])?
**A.** The value was “could not be blocked”.

**Q.** And the “Histological findings 24 h after PDT” value (SNP tumors; 3-h-interval PDT)?
**A.** Its value is “cells at the superficial tumor tissue appeared necrotic, whereas deep-seated tumor cells appeared intact”.

**Q.** What about the “Histological findings 24 h after PDT” value (SNP tumors; 5-min-interval PDT) of the same compound?
**A.** Its value is “widespread tumor cells appeared necrotic”.

**Q.** And the “Changes in serum biochemical parameters” value ([5]; 2 mg/kg i.v.)?
**A.** Its value is “No significant changes”.

**Q.** What about the “Major skin photosensitivity or acute toxicity (vomiting, diarrhea, salivation)” value ([5]; 2 mg/kg i.v.) of the same compound?
**A.** The value was “no evidence”.

**Q.** And the “Tolerability in safety examination” value ([5]; 2 mg/kg i.v.)?
**A.** The value was “well tolerated”.

**Q.** What about the ALP ([5]; 2 mg/kg i.v.) of the same compound?
**A.** The ALP was 154 ± 59.69 U/L.

**Q.** And the ALT ([5]; 2 mg/kg i.v.)?
**A.** The ALT was 40 ± 7.17 U/L.

**Q.** What about the AST ([5]; 2 mg/kg i.v.) of the same compound?
**A.** Its AST is 32 ± 4.72 U/L.

**Q.** And the BUN ([5]; 2 mg/kg i.v.)?
**A.** Its BUN is 15.8 ± 4.20 mg/dL.

**Q.** What about the Cre ([5]; 2 mg/kg i.v.) of the same compound?
**A.** Its Cre is 0.5 ± 0.09 mg/dL.

**Q.** And the GGT ([5]; 2 mg/kg i.v.)?
**A.** Its GGT is 1.5 ± 2.35 U/L.

**Q.** What about the Glu ([5]; 2 mg/kg i.v.) of the same compound?
**A.** The Glu was 99.5 ± 17.85 mg/dL.

**Q.** What about the “Changes in serum biochemical parameters” value ([5]; 5 mg/kg i.v.) of the same compound?
**A.** The value was “no significant changes”.

**Q.** What about the “Side effects during administration” value ([5]; 5 mg/kg i.v.) of the same compound?
**A.** The value was “Nausea was observed”.

**Q.** What about the ALP ([5]; 5 mg/kg i.v.) of the same compound?
**A.** Its ALP is 141.0 ± 47.04 U/L.

**Q.** And the ALT ([5]; 5 mg/kg i.v.)?
**A.** The ALT was 59.0 ± 9.52 U/L.

**Q.** What about the AST ([5]; 5 mg/kg i.v.) of the same compound?
**A.** Its AST is 31.0 ± 10.47 U/L.

**Q.** And the BUN ([5]; 5 mg/kg i.v.)?
**A.** The BUN was 13.4 ± 5.05 mg/dL.

**Q.** What about the Cre ([5]; 5 mg/kg i.v.) of the same compound?
**A.** The Cre was 0.5 ± 0.13 mg/dL.

**Q.** And the GGT ([5]; 5 mg/kg i.v.)?
**A.** Its GGT is 5.0 ± 1.63 U/L.

**Q.** And the Glu ([5]; 5 mg/kg i.v.)?
**A.** Its Glu is 96.0 ± 10.88 mg/dL.

**Q.** And the “Levels of AST and ALT in blood” value ([5]; 20 mg/kg i.v.)?
**A.** The value was “Increases”.

**Q.** What about the “Side effects during administration” value ([5]; 20 mg/kg i.v.) of the same compound?
**A.** Its value is “vomiting and weakness”.

**Q.** What about the ALP ([5]; 20 mg/kg i.v.) of the same compound?
**A.** The ALP was 134.0 U/L.

**Q.** What about the ALT ([5]; 20 mg/kg i.v.) of the same compound?
**A.** Its ALT is 135.0 U/L.

**Q.** And the AST ([5]; 20 mg/kg i.v.)?
**A.** Its AST is 55.0 U/L.

**Q.** What about the BUN ([5]; 20 mg/kg i.v.) of the same compound?
**A.** The BUN was 8.6 mg/dL.

**Q.** What about the Cre ([5]; 20 mg/kg i.v.) of the same compound?
**A.** The Cre was 0.5 mg/dL.

**Q.** What about the GGT ([5]; 20 mg/kg i.v.) of the same compound?
**A.** Its GGT is 14.0 U/L.

**Q.** What about the Glu ([5]; 20 mg/kg i.v.) of the same compound?
**A.** The Glu was 107.0 mg/dL.

**Q.** And the Toxic dose level ([5]; i.v.)?
**A.** Its Toxic dose level is 20 mg/kg.

**Q.** What about the “Optimal dose, which did not cause any adverse effects” value ([5]; i.v., based on pharmacokinetics and safety examination) of the same compound?
**A.** Its value is 2 mg/kg.

**Q.** And the “Cytotoxicity after 1 h incubation” value (SNP cells [6])?
**A.** Its value is “No cytotoxicity was observed”.

**Q.** And the IC50 [7]?
**A.** Its IC50 is 1.35 nM.
